# Measured values reported in article PMC9403976, “Elucidating the path to Plasmodium prolyl-tRNA synthetase inhibitors that overcome halofuginone resistance” (Nature Communications, 2022).
# “And” between values parts separate entries of the source, which are not always exact repeats. Equal values may be shown once. Read-outs that look alike come from different tables or passages of the source. Marks after values point to notes of the source that are not given here.
# Assays:
# P. falciparum Dd2-2D4 = assay: P. falciparum asexual blood stage (ABS) growth assay, SYBR Green, 72 h, wild-type parasites; type: cell-based, Plasmodium falciparum
# [1] = tested on: HFGR-I P. falciparum (elevated proline homeostasis and PfcProRS^L482H); assay: P. falciparum ABS growth assay, SYBR Green, 72 h, HFGR-I parasites; type: cell-based, Plasmodium falciparum; conditions: for parasite growth, dose-response point: HFGR-I
# Method in brief: (§1)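 EC50 came from SYBR Green 1 fluorescence measured 72 h after dosing in triplicate dose-response. Dihydroartemisinin at 10 μM set full kill and untreated wells set full growth. Cultures of the Dd2 lines were seeded at 1% hematocrit and 1% parasitemia in Albumax-supplemented RPMI.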
# HsProRS = HsProRS (Homo sapiens, UniProt P07814); assay: TR-FRET ligand displacement assay with tracer MAT379 (CoraFluor-1-Halo and anti-His6 antibody formats); type: binding; design: made in house; host or cells: E. coli SoluBL-21; conditions: for normalized TR-FRET signal (dose-response replicates): SI Fig 17a
# Sequence of HsProRS (P07814 996-1512): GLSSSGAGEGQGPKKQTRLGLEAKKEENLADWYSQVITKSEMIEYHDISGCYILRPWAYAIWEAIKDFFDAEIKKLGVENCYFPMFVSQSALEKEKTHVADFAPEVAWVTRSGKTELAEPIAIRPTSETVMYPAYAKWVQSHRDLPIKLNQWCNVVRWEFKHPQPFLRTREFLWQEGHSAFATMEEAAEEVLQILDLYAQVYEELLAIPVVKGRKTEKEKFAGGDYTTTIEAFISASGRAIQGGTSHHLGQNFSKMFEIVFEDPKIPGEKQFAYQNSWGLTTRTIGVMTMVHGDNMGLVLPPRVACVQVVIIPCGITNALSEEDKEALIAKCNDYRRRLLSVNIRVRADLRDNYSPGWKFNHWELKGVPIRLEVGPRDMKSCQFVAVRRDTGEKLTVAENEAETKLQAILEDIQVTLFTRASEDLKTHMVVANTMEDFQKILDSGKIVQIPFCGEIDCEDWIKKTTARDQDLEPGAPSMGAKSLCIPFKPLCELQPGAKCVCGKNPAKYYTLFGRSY
# PfcProRS = target: T1, PfcProRS (Plasmodium falciparum, UniProt Q8I5R7); type: binding; conditions: for Normalized response, dose-response replicates (SI Fig 14): replicates 1-3
# T1 construct: made in house; host or cells: E. coli SoluBL-21
# T1 sequence (Q8I5R7 249-746): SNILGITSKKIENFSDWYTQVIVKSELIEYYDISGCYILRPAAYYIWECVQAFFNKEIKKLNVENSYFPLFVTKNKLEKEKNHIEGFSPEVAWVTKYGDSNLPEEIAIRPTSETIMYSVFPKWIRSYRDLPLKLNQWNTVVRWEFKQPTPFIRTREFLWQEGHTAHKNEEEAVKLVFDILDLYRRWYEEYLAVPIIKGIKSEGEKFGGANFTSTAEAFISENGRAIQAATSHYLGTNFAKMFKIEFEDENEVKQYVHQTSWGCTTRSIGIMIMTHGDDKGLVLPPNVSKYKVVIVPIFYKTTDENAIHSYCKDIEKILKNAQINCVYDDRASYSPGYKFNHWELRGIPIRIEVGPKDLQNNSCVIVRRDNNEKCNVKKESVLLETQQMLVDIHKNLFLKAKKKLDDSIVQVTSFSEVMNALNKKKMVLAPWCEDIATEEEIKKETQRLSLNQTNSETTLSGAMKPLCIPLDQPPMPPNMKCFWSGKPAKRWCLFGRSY
# [2] = tested on: halofuginone-induced P. falciparum (elevated proline homeostasis); assay: P. falciparum ABS growth assay, SYBR Green, 72 h, halofuginone-induced parasites; type: cell-based, Plasmodium falciparum; conditions: for parasite growth, dose-response point: Halofuginone-Induced (HFG-Induced)
# Method in brief: as §1
# [3] = 10 μM, compound had <50% inhibition
# [4] = Log[inhibitor] (M) -5.000, series r4-r15
smiles,measurement,setting,value
CC(C)(C)OC(=O)N1CCC[C@H]1C(=O)NC1CCN(C(=O)Nc2nccnc2C(=O)NC2Cc3ccccc3C2)CC1 [compound 31],"percent growth at 10 μM, Dd2 wt",P. falciparum Dd2-2D4; [3],102%^b
same,EC50,"P. falciparum Dd2-2D4; Plasmodium falciparum, wildtype (Dd2-2D4), bound given in μM, read-out: Dd2 EC50 wildtype (Dd2-2D4), bound",> 10 µM
same,"% signal at 10 μM, wildtype (Dd2-2D4)","P. falciparum Dd2-2D4; wildtype (Dd2-2D4), 10 μM",102%
same,"percent growth at 10 μM, Dd2 HFGR-I",[1]; [3],103%^b
same,"% signal at 10 μM, HFGR1","[1]; HFGR1, 10 μM",103%
same,"parasite growth, dose-response point",[1]; [4],106 and 104 and 99
same,"parasite growth, dose-response point",[1]; Log[inhibitor] (M) -5.301,101 and 100
same,"parasite growth, dose-response point",[1]; Log[inhibitor] (M) -5.602,105 and 102 and 104
same,"parasite growth, dose-response point",[1]; Log[inhibitor] (M) -5.903,95 and 102 and 101
same,"parasite growth, dose-response point",[1]; Log[inhibitor] (M) -6.204,104 and 99 and 98
same,"parasite growth, dose-response point",[1]; Log[inhibitor] (M) -6.505,99 and 95 and 97
same,"parasite growth, dose-response point",[1]; Log[inhibitor] (M) -6.806,108 and 106 and 107
same,"parasite growth, dose-response point",[1]; Log[inhibitor] (M) -7.107,106 and 105
same,"parasite growth, dose-response point",[1]; Log[inhibitor] (M) -7.408,109 and 104 and 106
same,"parasite growth, dose-response point",[1]; Log[inhibitor] (M) -7.709,108 and 106
same,"parasite growth, dose-response point",[1]; Log[inhibitor] (M) -8.010,103 and 105
same,"parasite growth, dose-response point",[1]; Log[inhibitor] (M) -8.311,108 and 105 and 104
same,EC50,"[1]; Plasmodium falciparum, DD2, HFGR1, bound given in μM, read-out: Dd2 EC50 HFGR1, bound",> 10 µM
same,"HsProRS % signal at 10 μM, + 100 μM proline","HsProRS; + 100 μM proline, 10 μM",59.4%
same,Kd,"HsProRS; HsProRS (KD [nM]) −, absence of substrates, 250 nM MAT379",5130 nM
same,Kd,"HsProRS; HsProRS KD + 100 μM proline, bound, + 100 μM proline, bound given in μM",> 5090 nM
same,"normalised signal, dose-response point (Fig 4d)","HsProRS; Log[inhibitor] (M) -5.000, series of 31",4.79E-01 and 4.46E-01
same,"normalised signal, dose-response point (Fig 4d)",HsProRS; Log[inhibitor] (M) -5.286,6.67E-01 and 6.31E-01
same,"normalised signal, dose-response point (Fig 4d)",HsProRS; Log[inhibitor] (M) -5.574,7.84E-01 and 7.77E-01
same,"normalised signal, dose-response point (Fig 4d)",HsProRS; Log[inhibitor] (M) -5.862,8.87E-01 and 8.96E-01
same,"normalised signal, dose-response point (Fig 4d)",HsProRS; Log[inhibitor] (M) -6.151,9.64E-01 and 9.65E-01
same,"normalised signal, dose-response point (Fig 4d)",HsProRS; Log[inhibitor] (M) -6.428,9.34E-01 and 9.44E-01
same,"normalised signal, dose-response point (Fig 4d)",HsProRS; Log[inhibitor] (M) -6.729,9.61E-01 and 9.47E-01
same,"normalised signal, dose-response point (Fig 4d)",HsProRS; Log[inhibitor] (M) -7.006,9.42E-01 and 8.63E-01
same,"normalised signal, dose-response point (Fig 4d)",HsProRS; Log[inhibitor] (M) -7.295,9.55E-01 and 9.92E-01
same,"normalised signal, dose-response point (Fig 4d)",HsProRS; Log[inhibitor] (M) -7.585,1.05E+00 and 9.07E-01
same,"normalised signal, dose-response point (Fig 4d)",HsProRS; Log[inhibitor] (M) -7.875,9.50E-01 and 9.36E-01
same,"normalised signal, dose-response point (Fig 4d)",HsProRS; Log[inhibitor] (M) -8.135,9.31E-01 and 9.40E-01
same,"normalised signal, dose-response point (Fig 4d)",HsProRS; Log[inhibitor] (M) -8.477,9.84E-01 and 9.46E-01
same,"normalised signal, dose-response point (Fig 4d)",HsProRS; Log[inhibitor] (M) -8.699,8.68E-01 and 9.88E-01
same,"normalised signal, dose-response point (Fig 4d)",HsProRS; Log[inhibitor] (M) -9.176,1.01E+00 and 1.00E+00
same,"normalised signal, dose-response point (Fig 4d)",HsProRS; Log[inhibitor] (M) -9.363,9.70E-01 and 9.49E-01
same,normalized TR-FRET signal (dose-response replicates),HsProRS; Log[inhibitor] (M) -5.000,3.75E-01 and 3.29E-01 and 2.94E-01
same,normalized TR-FRET signal (dose-response replicates),HsProRS; Log[inhibitor] (M) -5.301,5.13E-01 and 4.93E-01 and 4.68E-01
same,normalized TR-FRET signal (dose-response replicates),HsProRS; Log[inhibitor] (M) -5.601,7.38E-01 and 6.61E-01 and 6.36E-01
same,normalized TR-FRET signal (dose-response replicates),HsProRS; Log[inhibitor] (M) -5.904,7.87E-01 and 7.39E-01 and 7.57E-01
same,normalized TR-FRET signal (dose-response replicates),HsProRS; Log[inhibitor] (M) -6.208,8.48E-01 and 8.27E-01 and 8.24E-01
same,normalized TR-FRET signal (dose-response replicates),HsProRS; Log[inhibitor] (M) -6.509,8.55E-01 and 8.71E-01 and 8.75E-01
same,normalized TR-FRET signal (dose-response replicates),HsProRS; Log[inhibitor] (M) -6.796,8.61E-01 and 8.99E-01 and 9.13E-01
same,normalized TR-FRET signal (dose-response replicates),HsProRS; Log[inhibitor] (M) -7.108,8.48E-01 and 8.44E-01 and 8.72E-01
same,normalized TR-FRET signal (dose-response replicates),HsProRS; Log[inhibitor] (M) -7.409,9.07E-01 and 8.89E-01 and 8.65E-01
same,normalized TR-FRET signal (dose-response replicates),HsProRS; Log[inhibitor] (M) -7.710,8.96E-01 and 8.93E-01 and 8.29E-01
same,normalized TR-FRET signal (dose-response replicates),HsProRS; Log[inhibitor] (M) -8.000,9.41E-01 and 8.72E-01 and 9.37E-01
same,normalized TR-FRET signal (dose-response replicates),HsProRS; Log[inhibitor] (M) -8.301,8.90E-01 (2×) and 9.30E-01
same,normalized TR-FRET signal (dose-response replicates),HsProRS; Log[inhibitor] (M) -8.602,9.13E-01 and 9.30E-01 and 9.15E-01
same,normalized TR-FRET signal (dose-response replicates),HsProRS; Log[inhibitor] (M) -9.000,9.52E-01 and 8.88E-01 and 9.53E-01
same,normalized TR-FRET signal (dose-response replicates),HsProRS; Log[inhibitor] (M) -9.301,9.64E-01 and 9.01E-01 and 8.76E-01
same,"Normalized response, dose-response replicates (SI Fig 14)",PfcProRS; Log[inhibitor] (M) -5.000,5.64E-01 and 5.99E-01 and 6.18E-01
same,"Normalized response, dose-response replicates (SI Fig 14)",PfcProRS; Log[inhibitor] (M) -5.301,6.96E-01 and 6.54E-01 and 6.55E-01
same,"Normalized response, dose-response replicates (SI Fig 14)",PfcProRS; Log[inhibitor] (M) -5.601,8.77E-01 and 8.39E-01 and 9.75E-01
same,"Normalized response, dose-response replicates (SI Fig 14)",PfcProRS; Log[inhibitor] (M) -5.904,9.20E-01 and 8.45E-01 and 8.88E-01
same,"Normalized response, dose-response replicates (SI Fig 14)",PfcProRS; Log[inhibitor] (M) -6.208,9.89E-01 and 9.27E-01 and 1.07E+00
same,"Normalized response, dose-response replicates (SI Fig 14)",PfcProRS; Log[inhibitor] (M) -6.509,1.00E+00 and 9.45E-01 and 8.96E-01
same,"Normalized response, dose-response replicates (SI Fig 14)",PfcProRS; Log[inhibitor] (M) -6.796,8.17E-01 and 9.17E-01 and 9.69E-01
same,"Normalized response, dose-response replicates (SI Fig 14)",PfcProRS; Log[inhibitor] (M) -7.108,9.90E-01 and 9.44E-01 and 8.89E-01
same,"Normalized response, dose-response replicates (SI Fig 14)",PfcProRS; Log[inhibitor] (M) -7.409,9.05E-01 and 8.67E-01 and 8.30E-01
same,"Normalized response, dose-response replicates (SI Fig 14)",PfcProRS; Log[inhibitor] (M) -7.710,9.25E-01 and 1.08E+00 and 9.24E-01
same,"Normalized response, dose-response replicates (SI Fig 14)",PfcProRS; Log[inhibitor] (M) -8.000,8.19E-01 and 1.06E+00 and 9.65E-01
same,"Normalized response, dose-response replicates (SI Fig 14)",PfcProRS; Log[inhibitor] (M) -8.301,1.15E+00 and 1.07E+00 (2×)
same,"Normalized response, dose-response replicates (SI Fig 14)",PfcProRS; Log[inhibitor] (M) -8.602,1.06E+00 and 1.03E+00 and 1.05E+00
same,"Normalized response, dose-response replicates (SI Fig 14)",PfcProRS; Log[inhibitor] (M) -9.000,8.95E-01 and 9.81E-01 and 1.04E+00
same,"Normalized response, dose-response replicates (SI Fig 14)",PfcProRS; Log[inhibitor] (M) -9.301,1.02E+00 and 9.15E-01 and 1.14E+00
same,PfcProRS -- best Kd,"PfcProRS; SI Fig 16a, values on -log scale",5.701
same,"percent growth at 10 μM, Dd2 Halofuginone-induced",[2]; [3],98%^b
same,"parasite growth, dose-response point",[2]; [4],103 and 98 and 92
same,"parasite growth, dose-response point",[2]; Log[inhibitor] (M) -5.301,107 and 109 and 115
same,"parasite growth, dose-response point",[2]; Log[inhibitor] (M) -5.602,124 and 110 and 116
same,"parasite growth, dose-response point",[2]; Log[inhibitor] (M) -5.903,117 and 106 and 104
same,"parasite growth, dose-response point",[2]; Log[inhibitor] (M) -6.204,111 and 107 and 99
same,"parasite growth, dose-response point",[2]; Log[inhibitor] (M) -6.505,98 (2×) and 104
same,"parasite growth, dose-response point",[2]; Log[inhibitor] (M) -6.806,109 and 112 and 103
same,"parasite growth, dose-response point",[2]; Log[inhibitor] (M) -7.107,105 and 103 and 108
same,"parasite growth, dose-response point",[2]; Log[inhibitor] (M) -7.408,116 and 109 and 103
same,"parasite growth, dose-response point",[2]; Log[inhibitor] (M) -7.709,115 and 100 and 119
same,"parasite growth, dose-response point",[2]; Log[inhibitor] (M) -8.010,104 and 100 and 101
same,"parasite growth, dose-response point",[2]; Log[inhibitor] (M) -8.311,107 and 102 and 101
same,EC50,"[2]; Plasmodium falciparum, DD2, halofuginone-induced, bound given in μM, read-out: Dd2 EC50 halofuginone-induced, bound",> 10 µM
same,"% signal at 10 μM, halofuginone-induced","[2]; halofuginone-induced, 10 μM",97.7%
